This is an account of results in patent publication EP1399158B1, “NON-THERAPEUTIC METHOD OF SUPPRESSING OESTRUS IN MAMMALIAN NON-HUMAN ANIMAL” (Vetcare Oy, priority 2001, dated 2002).

Structures are written as SMILES.

Data set [1] relates to beagle bitches. The data set is described as follows: Medical trial of oestrus suppression in beagle bitches (oestrus signs, mating behaviour, vaginal cytology, side effects). In kind it is in vivo. How it is done: (§1) A medical trial was conducted at University of Kuopio with six (6) beagle bitches the average weight of which was 10 kg and the age ranged from 1 year and 1 month to 3 years and 11 months. The dogs were given finrozole at a dose of 3 mg/dog/day from the first day of oestrus signs for 21 days. The development of oestrus signs were followed daily and serum samples collected twice a week. The sexual behaviour of a fertile male and the bitches was recorded. The male was allowed to mount and mate the bitches.

For data set [2], the system named is Estradiol-17-β and progesterone. The experiment in a line: Hormonal analyses of serum samples (estradiol assay/DPC, Coat-A-Count Progesterone/DPC) in the trial. In kind it is in vivo. Particulars: six beagle bitches, 3 mg/dog/day for 21 days. On the procedure:
as §1
Hormonal analyses were carried out at Swedish University of Agricultural Sciences in the Department of Clinical Chemistry Estradiol-17-β (the modified estradiol assay/DPC) and progesterone (Coat-A-Count Progesterone /DPC) were analysed.

The mark [3] stands for this setting: six beagle bitches, 3 mg/dog/day for 21 days.

Consider `N#Cc1ccc(C(C(O)Cc2ccc(F)cc2)n2cncn2)cc1` (single isomer, unassigned) [finrozole, 1-[1-(4-cyanophenyl)-3-(4-fluorophenyl)-2-hydroxypropyl]-1,2,4-triazole, diasteroisomer a + d], for which the “bitches mated (oestrus continued)” value in data set [1] (of the four bitches in which oestrus continued, fertile male allowed to mount and mate, 3 mg/dog/day for 21 days) was “Three of them were mated”. In addition, the bitches conceived result in data set [1] (of the three mated bitches, 3 mg/dog/day for 21 days) is given as “two conceived”. Moreover, in data set [1] (setting [3]), the “oestrus signs according to vaginal cytology” value is “no difference could be detected” and the “side effects during the treatment” value was “No side effects were seen”. In data set [1] (six beagle bitches, 3 mg/dog/day from the first day of oestrus signs for 21 days), the Oestrus signs entry is reported as “disappeared in two bitches of six”. Besides, in data set [2], the “time after starting the treatment during which serum estrogen levels decreased” value is 4 to 13 days. In data set [2] (serum), the Progesterone levels result is listed as “increased in five bitches of six”. Also, in data set [2] (serum samples twice a week), the serum estrogen levels result is reported as “decreased in all bitches”.
